Assay results reported in patent US10689365B2, “Substituted 2-alkylimidazolylcarboxamides as pesticides” (Bayer CropScience Aktiengesellschaft, priority 2016, dated 2020).
Where two headings read alike, the source gives them in different places.

Assays:
Myzus persicae [1] = assay: Myzus persicae - spray test (Chinese cabbage leaf discs); format: in vivo; conditions: Myzus persicae, foliar; application rate 500 g/ha, after 5-6 days; read-out: efficacy
Procedure: Myzus persicae—Spray Test
Solvent: 78 parts by weight of acetone • • 1.5 parts by weight of dimethylformamide
(§1) Emulsifier: alkylaryl polyglycol ether
(§2) To produce a suitable active compound preparation, 1 part by weight of active compound is dissolved using the stated parts by weight of solvent and made up with water containing an emulsifier concentration of 1000 ppm until the desired concentration is attained. To produce further test concentrations, the formulation is diluted with emulsifier-containing water.
Discs of Chinese cabbage leaves (Brassica pekinensis) infested by all stages of the green peach aphid (Myzus persicae) are sprayed with an active ingredient formulation of the desired concentration.
After 5-6 days, the efficacy in % is determined. 100% means that all the aphids have been killed; 0% means that no aphids have been killed.

Myzus persicae [2] = assay: Myzus persicae - oral test; format: in vivo; conditions: Myzus persicae, po, 120 h; application rate 20 ppm, after 5 days; read-out: efficacy
Procedure: (§3) Solvent: 100 parts by weight of acetone
(§4) To produce a suitable preparation of active compound, 1 part by weight of active compound is dissolved using the specified parts by weight of solvent and made up with water until the desired concentration is attained.
(§5) 50 μl of the active compound preparation are transferred into microtitre plates and made up to a final volume of 200 μl with 150 μl of IPL41 insect medium (33%+15% sugar). Subsequently, the plates are sealed with parafilm, which a mixed population of green peach aphids (Myzus persicae) within a second microtitre plate is able to puncture and imbibe the solution through it.
After 5 days, the efficacy in % is determined. 100% means that all the aphids have been killed; 0% means that no aphids have been killed.

Myzus persicae [3] = assay: Myzus persicae - spray test (MYZUPE), Chinese cabbage leaf discs; format: in vivo; conditions: foliar; for percent efficacy (aphid mortality) at 100 g/ha: 100 g of ai/ha; for Emax at 20 g/ha / percent efficacy (aphid mortality) at 20 g/ha: 20 g of ai/ha; for Emax at 20 g/ha: read-out: % efficacy
Procedure: Myzus persicae—Spray Test (MYZUPE)
Solvent: 78.0 parts by weight of acetone • • 1.5 parts by weight of dimethylformamide
as §1, §2
Discs of Chinese cabbage leaves (Brassica pekinensis) infested by all stages of the green peach aphid (Myzus persicae) are sprayed with an active compound preparation of the desired concentration.
(§6) After the desired period of time, the efficacy in % is determined. 100% means that all the aphids have been killed; 0% means that no aphids have been killed.

Myzus persicae [4] = assay: Myzus persicae - oral test (MYZUPE O); format: in vivo; conditions: read-out: % efficacy
Procedure: Myzus persicae—Oral Test (MYZUPE O)
as §3, §4, §5, §6

Myzus persicae [5] = assay: Myzus persicae - spray test (MYZUPE S), bell pepper plants; format: in vivo; conditions: 144 h, 6 dat, read-out: % efficacy
Procedure: Myzus persicae—Spray Test (MYZUPE S)
(§7) Solvent: 14 parts by weight of dimethylformamide
as §1
as §2, with “with” for “using”, “specified” for “stated”, “water. If the addition of ammonium salts or/and penetrants is required, these are each added in a concentration of 1000 ppm to the formulation solution.” for “water.”
Bell pepper plants (Capsicum annuum) severely infested with the green peach aphid (Myzus persicae) are treated by spraying with the active ingredient formulation in the desired concentration.
After the desired time, the kill in % is determined. 100% means that all the animals have been killed; 0% means that no animals have been killed.

Myzus persicae [6] = assay: Myzus persicae - drench test (MYZUPE D), Savoy cabbage in soil; format: in vivo; conditions: 240 h, 10 dat, read-out: % efficacy
Procedure: Myzus persicae—Drench Test (MYZUPE D)
To produce a suitable active compound preparation, 1 part by weight of active compound is mixed with the specified amounts of solvent and emulsifier, and the concentrate is diluted with water to the desired concentration, it being necessary to include the volume of soil which is drenched in the calculation. It should be ensured that a concentration of 40 ppm of emulsifier in the soil is not exceeded. To produce further test concentrations, water is used for dilution.
Savoy cabbage (Brassica oleracea) in pots with soil and infested by all stages of the green peach aphid (Myzus persicae) is watered with an active compound preparation of the desired concentration.
as §6

Aphis gossypii = Aphis gossypii - spray test (APHIGO S), cotton plants; format: in vivo; conditions: 144 h, 6 dat, read-out: % efficacy
Procedure: Aphis gossypii—Spray Test (APHIGO S)
as §7, §1
as §2, with “water. If the addition of ammonium salts or/and penetrants is required, these are each added in a concentration of 1000 ppm to the formulation solution.” for “water.”
Cotton plants (Gossypium hirsutum) heavily infested by the cotton aphid (Aphis gossypii) are sprayed with an active ingredient formulation of the desired concentration.
After the desired time, the kill in % is determined. 100% means that all the aphids have been killed; 0% means that no aphids have been killed.

[7] = log P by HPLC on reversed-phase (C18) columns, OECD Guideline 117; format: physicochemical; conditions: reversed-phase (C18) HPLC column
Procedure: The log P values were determined in accordance with OECD Guideline 117 (EC Directive 92/69/EEC) by HPLC (high-performance liquid chromatography) using reversed-phase (RP) columns (C18), by the following methods:
[a] The LC-MS determination in the acidic range was carried out at pH 2.7 with 0.1% aqueous formic acid and acetonitrile (contains 0.1% formic acid) as mobile phases; linear gradient from 10% acetonitrile to 95% acetonitrile.
[b] LC-MS determination in the neutral range was carried out at pH 7.8 with 0.001 molar aqueous ammonium hydrogencarbonate solution and acetonitrile as mobile phases; linear gradient from 10% acetonitrile to 95% acetonitrile.

[8] = acidic range, pH 2.7, 0.1% aqueous formic acid/acetonitrile, read-out: logP[a]
[9] = neutral range, pH 7.8, aqueous ammonium hydrogencarbonate/acetonitrile, read-out: logP[n]

| SMILES | pest or weed control at 500 g/ha (Myzus persicae [1]) | pest or weed control at 20 ppm (Myzus persicae [2]) | percent efficacy (aphid mortality) at 100 g/ha (Myzus persicae [3]; 144 h, 6 dat) | Emax at 4 ppm (Myzus persicae [4]; 144 h, 6 dat) | Emax at 0.16 ppm (Myzus persicae [5]) | Emax at 0.16 ppm (Myzus persicae [6]) | Emax at 0.8 ppm (Aphis gossypii) | Emax at 4 ppm (Aphis gossypii; 4 ppm) | chromatographic logP [7, 8] | chromatographic logP [7, 9] | Emax at 20 g/ha (Myzus persicae [3]; 120 h, 5 dat) | percent efficacy (aphid mortality) at 100 g/ha (Myzus persicae [3]; 120 h, 5 dat) | Emax at 4 ppm (Myzus persicae [4]; 120 h, 5 dat) | percent kill (mortality) of aphids at a fixed dose at 0.8 ppm (Aphis gossypii) | percent efficacy (aphid mortality) at 20 g/ha (Myzus persicae [3]; 120 h, 5 dat) | percent kill (mortality) of aphids at a fixed dose at 4 ppm (Aphis gossypii; 4 ppm) |
| --- | --- | --- | --- | --- | --- | --- | --- | --- | --- | --- | --- | --- | --- | --- | --- | --- |
| CN(C(=O)c1cnc(Cn2nccn2)n1C)c1cccnc1 [Example I-1-47] | 100% | 100% | 90% | 100% | 90% | 90% | 100% | 100% | 0.35 | 0.75 |  |  |  |  |  |  |
| CCN(C(=O)c1cnc(CSC(C)C)n1C)c1cccnc1 [Example I-1-50] | 90% | 100% |  |  | 100% | 98% |  | 95% | 1.1 | 1.73 | 70% | 90% | 100% | 90% |  |  |
| CSCc1ncc(C(=O)N(C)c2cccnc2)n1C [Example I-1-26] | 100% | 100% |  |  | 95% | 90% | 30% | 98% | -0.04 | 0.98 |  | 90% | 100% |  | 90% |  |
| CC(C)S(=O)(=O)Cc1ncc(C(=O)N(C)c2cccnc2)n1C [Example I-1-30, 2-[(Isopropylsulphonyl)methyl]-N,1-dimethyl-N-(pyridin-3-yl)-1H-imidazole-5-carboxamide] | 90% | 100% |  |  | 98% | 98% | 100% | 100% | 0.56 | 0.88 |  | 90% | 100% |  | 90% |  |
| CN(C(=O)c1cnc(CS(=O)(=O)CC2CC2)n1C)c1cccnc1 [Example I-1-48] | 100% | 100% |  |  | 99% | 90% |  |  | 0.71 | 1.04 |  | 100% | 100% | 100% | 100% | 100% |
| CN(C(=O)c1cnc(CS(=O)(=O)C(C)(C)C)n1C)c1cccnc1 [Example I-1-34] | 100% | 100% |  |  | 45% | 90% | 85% | 95% | 0.75 | 1.03 |  | 90% | 100% |  | 90% |  |
| CCS(=O)(=O)Cc1ncc(C(=O)N(C)c2cccnc2)n1C [Example I-1-28] | 100% | 100% |  |  | 95% | 95% | 98% | 100% | 0.35 | 0.65 | 100% | 90% | 100% |  |  |  |
